# Source: patent publication US11078228B2, “Ectonucleotidase inhibitors and methods of use thereof” (Calithera Biosciences, Inc., priority 2018, dated 2021)
# Target: recombinant CD73 (Homo sapiens (Human), UniProt P21589)
# Test: Assay 2: Inhibition of the CD73 enzyme in vitro (0.05 nM CD73, 1 hour 37° C., Malachite Green)
# Type: biochemical
# Conditions: 0.05 nM CD73, 50 μM AMP, 1 hour at 37° C.
# Experimental: For measurements of soluble CD73 enzyme activity, recombinant CD73 was obtained from R&D Systems, Cat. No. 5795-EN-010. […] Reactions were allowed to proceed for 1 hour at 37° C. before the addition of 100 μL Malachite Green (Cell Signaling Technology, Cat. No. 12776). After 5 minutes at room temperature, absorbance at 630 nm was determined on a microplate spectrophotometer. The concentration of inorganic phosphate was determined using a phosphate standard curve.
# recombinant CD73, sequence (P21589 27-547): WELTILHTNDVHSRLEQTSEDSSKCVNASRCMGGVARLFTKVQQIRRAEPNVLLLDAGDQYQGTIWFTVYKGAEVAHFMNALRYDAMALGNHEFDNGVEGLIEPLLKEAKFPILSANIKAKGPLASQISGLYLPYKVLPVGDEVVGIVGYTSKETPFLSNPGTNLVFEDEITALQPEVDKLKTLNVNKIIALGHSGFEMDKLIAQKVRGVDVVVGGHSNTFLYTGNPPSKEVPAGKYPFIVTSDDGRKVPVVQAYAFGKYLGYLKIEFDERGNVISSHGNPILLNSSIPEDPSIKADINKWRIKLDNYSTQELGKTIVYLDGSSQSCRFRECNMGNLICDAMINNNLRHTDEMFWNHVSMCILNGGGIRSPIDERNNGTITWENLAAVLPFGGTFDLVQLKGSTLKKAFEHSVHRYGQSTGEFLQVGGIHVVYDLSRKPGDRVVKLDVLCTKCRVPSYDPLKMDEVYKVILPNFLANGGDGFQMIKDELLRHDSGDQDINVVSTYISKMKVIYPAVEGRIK
row,Compound,IC50
1,"C#C[C@@]1(O)[C@@H](COC(Cc2ccccc2)(C(=O)O)C(=O)O)O[C@@H](n2cnc3c(-c4cnn(S(=O)(=O)c5ccc(C)cc5)c4)nc(Cl)nc32)[C@@H]1O [Example 159, 2-benzyl-2-(((2R,3S,4R,5R)-5-(2-chloro-6-(1-tosyl-1H-pyrazol-4-yl)-9H-purin-9-yl)-3-ethynyl-3,4-dihydroxytetrahydrofuran-2-yl)methoxy)malonic acid]",476 nM
2,"C#C[C@@]1(O)[C@@H](COC(Cc2ccccc2)(C(=O)O)C(=O)O)O[C@@H](n2cnc3c(N(C)CC)nc(Cl)nc32)[C@@H]1O [Example 66, 2-benzyl-2-(((2R,3S,4R,5R)-5-(2-chloro-6-(ethyl(methyl)amino)-9H-purin-9-yl)-3-ethynyl-3,4-dihydroxytetrahydrofuran-2-yl)methoxy)malonic acid]",0.3 nM
3,"C#C[C@@]1(O)[C@@H](COC(Cc2ccc(-c3cccn(CCO)c3=O)cc2)(C(=O)O)C(=O)O)O[C@@H](n2cnc3c(NC(C)C)nc(Cl)nc32)[C@@H]1O [Example 153, 2-(((2R,3S,4R,5R)-5-(2-chloro-6-(isopropylamino)-9H-purin-9-yl)-3-ethynyl-3,4-dihydroxytetrahydrofuran-2-yl)methoxy)-2-(4-(1-(2-hydroxyethyl)-2-oxo-1,2-dihydropyridin-3-yl)benzyl)malonic acid]",0.48 nM
4,"C#C[C@@]1(O)[C@@H](COC(Cc2ccccc2)(C(=O)O)C(=O)O)O[C@@H](n2cnc3c(N4CC[C@@H](CO)C4)nc(Cl)nc32)[C@@H]1O [Example 102, 2-benzyl-2-(((2R,3S,4R,5R)-5-(2-chloro-6-((R)-3-(hydroxymethyl)-pyrrolidin-1-yl)-9H-purin-9-yl)-3-ethynyl-3,4-dihydroxytetrahydrofuran-2-yl)methoxy)malonic acid]",1 nM
5,"C#C[C@@]1(O)[C@@H](COC(Cc2ccccc2)(C(=O)O)C(=O)O)O[C@@H](n2cnc3c(N4CC(O)C4)nc(Cl)nc32)[C@@H]1O [Example 41, 2-benzyl-2-(((2R,3S,4R,5R)-5-(2-chloro-6-(3-hydroxyazetidin-1-yl)-9H-purin-9-yl)-3-ethynyl-3,4-dihydroxytetrahydrofuran-2-yl)methoxy)malonic acid]",0.6 nM
6,"C#C[C@@]1(O)[C@@H](COC(Cc2ccccc2)(C(=O)O)C(=O)O)O[C@@H](n2cnc3c(NCCc4ccccc4)nc(Cl)nc32)[C@@H]1O [Example 70, 2-benzyl-2-(((2R,3S,4R,5R)-5-(2-chloro-6-(phenethylamino)-9H-purin-9-yl)-3-ethynyl-3,4-dihydroxytetrahydrofuran-2-yl)methoxy)malonic acid]",1 nM
7,"C#C[C@@]1(O)[C@@H](COC(Cc2ccc(N3CCCNC3=O)cc2)(C(=O)O)C(=O)O)O[C@@H](n2cnc3c(NC)nc(Cl)nc32)[C@@H]1O [Example 141, 2-(((2R,3S,4R,5R)-5-(2-chloro-6-(methylamino)-9H-purin-9-yl)-3-ethynyl-3,4-dihydroxytetrahydrofuran-2-yl)methoxy)-2-(4-(2-oxotetrahydropyrimidin-1 (2H)-yl)benzyl)malonic acid]",0.23 nM
8,"C#C[C@@]1(O)[C@@H](CO[C@@H](Cc2ccc(N3CCCNC3=O)cc2)C(=O)O)O[C@@H](n2cnc3c(N)nc(Cl)nc32)[C@@H]1O (single isomer, unassigned) [Example 167]",139 nM
9,"C#C[C@@]1(O)[C@@H](COC(Cc2ccc(-c3cccn(CC)c3=O)cc2)(C(=O)O)C(=O)O)O[C@@H](n2cnc3c(NC)nc(Cl)nc32)[C@@H]1O [Example 130, 2-(((2R,3S,4R,5R)-5-(2-chloro-6-(methylamino)-9H-purin-9-yl)-3-ethynyl-3,4-dihydroxytetrahydrofuran-2-yl)methoxy)-2-(4-(1-ethyl-2-oxo-1,2-dihydropyridin-3-yl)benzyl)malonic acid]",0.36 nM
